In one data set the target is HsCDK2/HsCYCA (Homo sapiens, UniProt P24941). In words: TR-FRET kinase assay, human CDK2 activated by human cyclin A. It is filed as biochemical. The note with it: for IC50 / Ki: mean±SD, n = 3–6. On the technique in general: TR-FRET usually uses a lanthanide donor and a delayed reading to cut background.
A further data set concerns the target EtCRK2/XlRINGO (Eimeria tenella, UniProt Q6R8F0). In words: biochemical. The source says: Therefore, we tested XlRINGO as an activator of EtCRK2.
(§1) In order to discover specific inhibitors of EtCRK2 we performed an in vitro screening campaign supported by an in silico hit enrichment (Fig. 4).

The target in the next data set is EtCRK2/EtCYC3a (Eimeria tenella, UniProt Q6R8F0). Description: TR-FRET kinase assay, EtCRK2 activated by EtCYC3a. It is filed as biochemical.
From the text: as §1

Data set [1] addresses Eimeria tenella cyclin-like 3a (EtCYC3a), maltose binding protein fusion (Eimeria tenella).
The subject of another data set is host cell. Details: method as in Engels et al., 2010. The note with it: ref Engels et al., 2010; cited from earlier work.
Another data set has as its system EtCRK2. Set-up: method as in Engels et al., 2010. The note with it: ref Engels et al., 2010, cited from earlier work.
Data set [2] has as its system E. tenella schizont development. Set-up: method as in Engels et al., 2010. The note with it: ref Engels et al., 2010, cited from earlier work.
[3] abbreviates: standard CDK inhibitors, mean±SD, n = 3–6, read-out: IC50 EtCRK2/EtCYC3a.
Setting [4] is: standard CDK inhibitors, mean±SD, n = 3–6, read-out: Ki EtCRK2/EtCYC3a.
[5] abbreviates: standard CDK inhibitors, mean±SD, n = 3–6, read-out: IC50 EtCRK2/XlRINGO.
Setting [6] is: standard CDK inhibitors, mean±SD, n = 3–6, read-out: Ki EtCRK2/XlRINGO.
The mark [7] stands for this setting: lead structures, mean±SD, n = 3–6, read-out: IC50 EtCRK2/ XlRINGO.
[8] abbreviates: lead structures, mean±SD, n = 3–6, read-out: Ki EtCRK2/ XlRINGO.
Setting [9] is: lead structures, mean±SD, n = 3–6, read-out: IC50 EtCRK2/ EtCYC3a.
Setting [10] is: lead structures, mean±SD, n = 3–6, read-out: Ki EtCRK2/ ETCYC3a.

Read-outs that look alike come from different tables or passages of the source. Some results are limits rather than exact numbers.

For the molecule `CC(C)C(CO)Nc1nc(Nc2cccc(Cl)c2)c2ncn(C(C)C)c2n1` (centres unmarked) [Purvalanol A, 2-[[6-[(3-chlorophenyl)amino]-9-isopropyl-purin-2-yl]amino]-3-methyl-butan-1-ol], the IC50 against HsCDK2/HsCYCA (standard CDK inhibitors) is 140 ± 40 nM; at EtCRK2/XlRINGO, 800 ± 110 nM; at EtCRK2/EtCYC3a (setting [3]), 1030 ± 180 nM. The values for the Ki on HsCDK2/HsCYCA (standard CDK inhibitors), on EtCRK2/XlRINGO and on EtCRK2/EtCYC3a (setting [4]) were 40 ± 1 nM, 80 ± 10 nM and 360 ± 130 nM, respectively.

As to `O=C1Cc2c([nH]c3ccc([N+](=O)[O-])cc23)-c2ccccc2N1` [Alsterpaullone, 9-nitro-7,12-dihydro-5H-indolo[3,2-d][1]benzazepin-6-one], the IC50 on EtCRK2/XlRINGO (setting [5]) was found to be 220 ± 60 nM; on EtCRK2/EtCYC3a (setting [3]) it was 640 ± 340 nM. Moreover, the Ki at EtCRK2/XlRINGO (setting [6]) amounted to 70 ± 2 nM; at EtCRK2/EtCYC3a (setting [4]), 210 ± 40 nM.

On EtCRK2/XlRINGO, `CN[C@@H]1C[C@H]2O[C@@](C)([C@@H]1OC)n1c3ccccc3c3c4c(c5c6ccccc6n2c5c31)C(=O)NC4` [Staurosporine, (9S,10R,11R,13R)-2,3,10,11,12,13-hexahydro-10-methoxy-9-methyl-11-(methylamino)-9,13-epoxy-1H,9H-diindolo[1,2,3-gh:3′,2′,1′-lm]pyrrolo[3,4-j][1,7]benzodiazonin-1-one] had an IC50 of 90 ± 10 nM and a Ki of 20 ± 10 nM. At EtCRK2/EtCYC3a, this molecule had an IC50 of 190 ± 90 nM and a Ki of 530 ± 200 nM.

Regarding `O=C1Nc2ccc(S(=O)(=O)O)cc2/C1=C1/Nc2ccccc2C1=O` [Indirubin-5′-sulfonic acid, (3Z)-2-oxo-3-(3-oxo-1H-indol-2-ylidene)-1H-indole-5-sulfonic acid], the IC50 on EtCRK2/XlRINGO (setting [5]) came out at 670 ± 180 nM; on EtCRK2/EtCYC3a (setting [3]), 940 ± 310 nM. For the same molecule, the results for the Ki on EtCRK2/XlRINGO (setting [6]) and on EtCRK2/EtCYC3a (setting [4]) were 170 ± 30 nM and 240 ± 100 nM, respectively.

For the molecule `Nc1cc(S(=O)(=O)O)c2cccnc2c1O` [BES312351, 7-amino-8-hydroxy-quinoline-5-sulfonic acid hydrate], the IC50 worked out at 5160 ± 2850 nM at HsCDK2/HsCYCA (lead structures), 7130 ± 2490 nM at EtCRK2/XlRINGO (setting [7]) and 6500 ± 2490 nM against EtCRK2/EtCYC3a. The Ki came to 780 ± 610 nM on HsCDK2/HsCYCA (lead structures), 940 ± 310 nM at EtCRK2/XlRINGO (setting [8]) and 4670 ± 2020 nM on EtCRK2/EtCYC3a.

In the case of “Eimeria tenella CDC2-related kinase 2 (EtCRK2), His-tagged (enzyme)”, the specific activity of EtCRK2 in the EtCRK2/EtCYC3a complex, TR-FRET kinase assay with fluorescein-labelled histone H1 substrate in data set [1] is 0.15 µmol/min/mg.

Take `CN1CC[C@H](c2c(O)cc(O)c3c(=O)cc(-c4ccccc4Cl)oc23)[C@H](O)C1` [Flavopiridole, 2-(2-chlorophenyl)-5,7-dihydroxy-8-[(3S,4R)-3-hydroxy-1-methyl-4-piperidinyl]-4H-1-benzopyran-4-one]: the “concentrations at which host cell toxicity is observed” value in the data set with host cell is given as “above 600 nM”. Also, in the data set with EtCRK2 (read-out: IC50 EtCRK2 in enzyme assays), the IC50 is 33 ± 10 nM. Moreover, on EtCRK2 (read-out: Ki EtCRK2 in enzyme assays), the Ki was 11 ± 3 nM. In addition, the “inhibition of E. tenella schizont development” value in data set [2] (at concentrations of 150 and 300 nM) was “fully inhibits”; in data set [2] (concentrations below 80 nm) it was “no inhibitory effects”.

`Cc1cc(O)c2c(c1O)C(=O)C(Cl)=C(Cl)C2=O` [BES130131, 2,3-dichloro-5,8-dihydroxy-6-methyl-naphthalene-1,4-dione]: the IC50 came out at 14400 ± 1520 nM against HsCDK2/HsCYCA (lead structures), 14800 ± 8410 nM on EtCRK2/XlRINGO (setting [7]) and 18100 ± 1030 nM at EtCRK2/EtCYC3a (setting [9]). Moreover, the Ki was determined as 3350 ± 1060 nM on HsCDK2/HsCYCA (lead structures), 5250 ± 200 nM at EtCRK2/XlRINGO (setting [8]) and 6870 ± 1740 nM at EtCRK2/EtCYC3a (setting [10]).

In the case of `OC(CSc1ccccc1)CN1CCC(Nc2nccc(C(F)(F)F)n2)CC1` (centres unmarked) [BES124764, 1-phenylsulfanyl-3-[4-[[4-(trifluoromethyl)pyrimidin-2-yl]amino]-1-piperidyl]propane-2-ol], the “times more active towards the two E. tenella complexes than towards the HsCDK2/HsCYCA complex” value at HsCDK2/HsCYCA (EtCRK2/XlRINGO and EtCRK2/EtCYC3a versus HsCDK2/HsCYCA) is recorded as 25–30 times. For the same molecule, the IC50 against HsCDK2/HsCYCA (lead structures) is above 200000 nM; on EtCRK2/XlRINGO (setting [7]) it was 18600 ± 3720 nM; on EtCRK2/EtCYC3a (setting [9]) it was 7350 ± 1820 nM. For the same molecule, the Ki on HsCDK2/HsCYCA (lead structures) was 95300 ± 19100 nM; at EtCRK2/XlRINGO (setting [8]) it was 4330 ± 920 nM; on EtCRK2/EtCYC3a (setting [10]) it was 3420 ± 1080 nM. Besides, the “selectivity for EtCRK2 versus HsCDK2” value on HsCDK2/HsCYCA (result in words) is reported as “selective for EtCRK2”.

Take `NC1=NC(=O)/C(=C2\CCNC(=O)c3[nH]c(Br)cc32)N1` [10-Z-Hymendialdisine, (4Z)-4-(2-amino-4-oxo-1H-imidazol-5-ylidene)-2-bromo-1,5,6,7-tetrahydropyrrolo[2,3-c]azepin-8-one]: the IC50 came out at 120 ± 20 nM at HsCDK2/HsCYCA (standard CDK inhibitors), 440 ± 80 nM at EtCRK2/XlRINGO (setting [5]) and 930 ± 40 nM on EtCRK2/EtCYC3a. The figures for the Ki on HsCDK2/HsCYCA (standard CDK inhibitors), on EtCRK2/XlRINGO (setting [6]) and on EtCRK2/EtCYC3a were 30 ± 1 nM, 50 ± 20 nM and 190 ± 10 nM, respectively.
